Assay results published in patent US11655217B2, “Pyrazole MAGL inhibitors” (H. Lundbeck A/S, priority 2017, dated 2023).

Assays:
MAGL = MAGL (Mus musculus (Mouse), UniProt O35678); experiment: Mouse brain proteomes from inhibitor treated mice (oral gavage, sacrificed 4 h after administration, ABPP analysis); settings: 5 mg/kg oral gavage
Protocol: (§1) Preparation of Mouse Brain Proteomes from Inhibitor Treated Mice.
(§2) Inhibitors were administered to wild-type C57Bl/6J by oral gavage in a vehicle of polyethylene glycol.

FAAH = FAAH (Mus musculus (Mouse), UniProt O08914); experiment: Mouse brain proteomes from inhibitor treated mice (oral gavage, sacrificed 4 h after administration, ABPP analysis), FAAH; settings: 5 mg/kg oral gavage
Chain of FAAH (O08914 whole entry): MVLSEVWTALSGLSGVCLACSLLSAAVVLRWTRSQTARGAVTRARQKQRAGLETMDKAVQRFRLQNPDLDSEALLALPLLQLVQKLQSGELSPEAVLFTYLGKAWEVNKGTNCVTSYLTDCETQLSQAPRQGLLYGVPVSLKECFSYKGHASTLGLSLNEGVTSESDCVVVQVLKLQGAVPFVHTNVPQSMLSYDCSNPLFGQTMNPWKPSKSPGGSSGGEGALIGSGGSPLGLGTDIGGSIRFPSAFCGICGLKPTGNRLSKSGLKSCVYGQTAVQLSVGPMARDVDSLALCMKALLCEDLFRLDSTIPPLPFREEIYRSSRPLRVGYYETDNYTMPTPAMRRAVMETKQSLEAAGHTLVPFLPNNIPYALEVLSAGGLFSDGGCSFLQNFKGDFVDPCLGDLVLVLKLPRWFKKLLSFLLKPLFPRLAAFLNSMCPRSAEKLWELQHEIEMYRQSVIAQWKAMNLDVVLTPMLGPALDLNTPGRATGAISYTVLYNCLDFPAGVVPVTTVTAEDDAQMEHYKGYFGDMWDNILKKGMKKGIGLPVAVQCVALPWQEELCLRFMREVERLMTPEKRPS
Protocol: as §1, §2

Chain of MAGL (O35678 whole entry): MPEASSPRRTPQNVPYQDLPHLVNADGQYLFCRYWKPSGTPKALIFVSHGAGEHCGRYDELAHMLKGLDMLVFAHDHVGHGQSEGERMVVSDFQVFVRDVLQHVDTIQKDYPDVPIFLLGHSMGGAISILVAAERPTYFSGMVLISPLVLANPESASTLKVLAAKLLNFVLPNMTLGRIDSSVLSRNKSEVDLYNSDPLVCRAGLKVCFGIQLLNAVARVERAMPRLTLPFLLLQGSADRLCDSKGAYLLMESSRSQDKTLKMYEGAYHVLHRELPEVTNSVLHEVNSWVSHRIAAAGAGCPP

Row | SMILES | MAGL % inh. 5 mg/kg (mouse) (MAGL) | FAAH % inh. 5 mg/kg (mouse) (FAAH)
1 | NC(=O)C1CCN(c2cc(C(F)(F)F)ccc2CN2CCN(C(=O)n3ccc(C(=O)O)n3)CC2)CC1 [Example 113, 1-(4-(2-(4-carbamoylpiperidin-1-yl)-4-(trifluoromethyl)benzyl)piperazine-1-carbonyl)-1H-pyrazole-3-carboxylic acid] | D (% inhibition is greater than or equal to 0% and less than 25%) | D (% inhibition is greater than or equal to 0% and less than 25%)
2 | O=C(O)c1ccn(C(=O)N2CCN(Cc3ccc(C(F)(F)F)cc3N3CC[C@@H](F)C3)CC2)n1 [Example 101, (R)-1-(4-(2-(3-fluoropyrrolidin-1-yl)-4-(trifluoromethyl)benzyl)piperazine-1-carbonyl)-1H-pyrazole-3-carboxylic acid] | D (% inhibition is greater than or equal to 0% and less than 25%) | D (% inhibition is greater than or equal to 0% and less than 25%)
3 | O=C(O)c1ccn(C(=O)N2CCN(Cc3ccc(C(F)(F)F)cc3Cl)CC2)n1 [Example 91, 1-(4-(2-chloro-4-(trifluoromethyl)benzyl)piperazine-1-carbonyl)-1H-pyrazole-3-carboxylic acid] | D (% inhibition is greater than or equal to 0% and less than 25%) | D (% inhibition is greater than or equal to 0% and less than 25%)
4 | O=C(O)c1nn(C(=O)N2CCC3(CCN(Cc4cc(Cl)ccc4C(F)(F)F)C3)CC2)cc1C(F)(F)F [Example 148, 1-(2-(5-chloro-2-(trifluoromethyl)benzyl)-2,8-diazaspiro[4.5]decane-8-carbonyl)-4-(trifluoromethyl)-1H-pyrazole-3-carboxylic acid] | D (% inhibition is greater than or equal to 0% and less than 25%) | C (% inhibition is greater than or equal to 25% and less than 50%)
5 | O=C(O)c1ccn(C(=O)N2CCN(Cc3cccc(Cl)c3N3CC4COCC4C3)CC2)n1 (stereo not shown) [Example 211, 1-(4-(3-chloro-2-(tetrahydro-1H-furo[3,4-c]pyrrol-5(3H)-yl)benzyl)piperazine-1-carbonyl)-1H-pyrazole-3-carboxylic acid] | D (% inhibition is greater than or equal to 0% and less than 25%) | D (% inhibition is greater than or equal to 0% and less than 25%)
6 | C[C@H]1CCCN1c1cc(C(F)(F)F)ccc1CN1CCN(C(=O)n2ccc(C(=O)O)n2)CC1 [Example 104, (S)-1-(4-(2-(2-methylpyrrolidin-1-yl)-4-(trifluoromethyl)benzyl)piperazine-1-carbonyl)-1H-pyrazole-3-carboxylic acid] | D (% inhibition is greater than or equal to 0% and less than 25%) | D (% inhibition is greater than or equal to 0% and less than 25%)
7 | O=C(O)c1ccn(C(=O)N2CCN(Cc3cccc(Oc4ccc(F)cc4)c3)CC2)n1 [Example 51, 1-(4-(3-(4-fluorophenoxy)benzyl)piperazine-1-carbonyl)-1H-pyrazole-3-carboxylic acid] | D (% inhibition is greater than or equal to 0% and less than 25%) | D (% inhibition is greater than or equal to 0% and less than 25%)
8 | O=C(O)c1ccn(C(=O)N2CCN(Cc3cc4cc(Cl)ccc4s3)CC2)n1 [Example 187, 1-(4-((5-chlorobenzo[b]thio-phen-2-yl)methyl)piperazine-1-carbonyl)-1H-pyrazole-3-carboxylic acid] | D (% inhibition is greater than or equal to 0% and less than 25%) | D (% inhibition is greater than or equal to 0% and less than 25%)
9 | O=C(O)c1ccn(C(=O)N2CCN(Cc3ccc(Cl)cc3N3CC4COCC4C3)CC2)n1 (stereo not shown) [Example 111, 1-(4-(4-chloro-2-(tetrahydro-1H-furo[3,4-c]pyrrol-5(3H)-yl)benzyl)piperazine-1-carbonyl)-1H-pyrazole-3-carboxylic acid] | D (% inhibition is greater than or equal to 0% and less than 25%) | D (% inhibition is greater than or equal to 0% and less than 25%)
10 | O=C(O)c1ccn(C(=O)N2CCC3(CCCN3Cc3cc4ccc(C(F)(F)F)cc4s3)CC2)n1 [Example 185, 1-(1-((6-(trifluoromethyl)-benzo[b]thiophen-2-yl)methyl)-1,8-diazaspiro[4.5]-decane-8-carbonyl)-1H-pyrazole-3-carboxylic acid] | D (% inhibition is greater than or equal to 0% and less than 25%) | D (% inhibition is greater than or equal to 0% and less than 25%)
11 | O=C(O)c1nn(C(=O)N2CC3CN(Cc4ccc(N5CCCC5)cc4C(F)(F)F)CC3C2)cc1Cl (stereo not shown) [Example 140, 4-chloro-1-(5-(4-(pyrrolidin-1-yl)-2-(trifluoromethyl)benzyl)octahydro-pyrrolo[3,4-c]pyrrole-2-carbonyl)-1H-pyrazole-3-carboxylic acid] | D (% inhibition is greater than or equal to 0% and less than 25%) | D (% inhibition is greater than or equal to 0% and less than 25%)
12 | CC(C)(O)C1CCN(c2cc(C(F)(F)F)ccc2CN2CCN(C(=O)n3ccc(C(=O)O)n3)CC2)CC1 [Example 109, 1-(4-(2-(4-(2-hydroxypropan-2-yl)piperidin-1-yl)-4-(trifluoromethyl)benzyl)piperazine-1-carbonyl)-1H-pyrazole-3-carboxylic acid] | D (% inhibition is greater than or equal to 0% and less than 25%) | D (% inhibition is greater than or equal to 0% and less than 25%)
13 | O=C(O)c1ccn(C(=O)N2CC3CN(Cc4ccc(N5CCCC5)cc4C(F)(F)F)CC3C2)n1 (stereo not shown) [Example 123, 1-(5-(4-(pyrrolidin-1-yl)-2-(trifluoromethyl)benzyl)octahydro-pyrrolo[3,4-c]pyrrole-2-carbonyl)-1H-pyrazole-3-carboxylic acid] | D (% inhibition is greater than or equal to 0% and less than 25%) | D (% inhibition is greater than or equal to 0% and less than 25%)
14 | O=C(O)c1ccn(C(=O)N2CCN(Cc3ccc(C(F)(F)F)c(N4CCCC4)c3)CC2)n1 [Example 7, 1-(4-(3-(Pyrrolidin-1-yl)-4-(trifluoromethyl)benzyl)piperazine-1-carbonyl)-1H-pyrazole-3-carboxylic Acid] | D (% inhibition is greater than or equal to 0% and less than 25%) | D (% inhibition is greater than or equal to 0% and less than 25%)
15 | O=C(O)c1ccn(C(=O)N2CCN(Cc3ccc(C(F)(F)F)cc3N3CCC(O)CC3)CC2)n1 [Example 120, 1-(4-(2-(4-hydroxypiperidin-1-yl)-4-(trifluoromethyl)benzyl)piperazine-1-carbonyl)-1H-pyrazole-3-carboxylic acid] | D (% inhibition is greater than or equal to 0% and less than 25%) | D (% inhibition is greater than or equal to 0% and less than 25%)
16 | O=C(O)c1ccn(C(=O)N2CCC3(CCCN3Cc3cc(N4CCCC4)cc(C(F)(F)F)c3)CC2)n1 [Example 88, 1-(1-(3-(pyrrolidin-1-yl)-5-(trifluoromethyl)benzyl)-1,8-diazaspiro[4.5]decane-8-carbonyl)-1-1H-pyrazole-3-carboxylic acid] | D (% inhibition is greater than or equal to 0% and less than 25%) | D (% inhibition is greater than or equal to 0% and less than 25%)
17 | Cc1cn(C(=O)N2CCC3(CC2)CN(Cc2ccc(C(F)(F)F)cc2N2CCCC2)C3)nc1C(=O)O [Example 135, 4-methyl-1-(2-(2-(pyrrolidin-1-yl)-4-(trifluoromethyl)benzyl)-2,7-diazaspiro[3.5]no-nane-7-carbonyl)-1H-pyrazole-3-carboxylic acid] | D (% inhibition is greater than or equal to 0% and less than 25%) | D (% inhibition is greater than or equal to 0% and less than 25%)
